Reference: ChEMBL document CHEMBL1909046, “DrugMatrix in vitro pharmacology data”

Assays:
[1] = DRUGMATRIX: Nicotinic Acetylcholine radioligand binding (ligand: [125I] Epibatidine); type: cell membranes, Membrane; details: imr-32; Not Active = under 50% inhibition at 10 µM
[2] = target: T1, 5-hydroxytryptamine receptor 2C (Homo sapiens, UniProt P28335); assay: DRUGMATRIX: Serotonin (5-Hydroxytryptamine) 5-HT2C radioligand binding (ligand: [3H] Mesulergine); type: cell membranes, CHO-K1, Membrane; details: cho-k1; Not Active = under 50% inhibition at 10 µM
T1 sequence (P28335 whole entry): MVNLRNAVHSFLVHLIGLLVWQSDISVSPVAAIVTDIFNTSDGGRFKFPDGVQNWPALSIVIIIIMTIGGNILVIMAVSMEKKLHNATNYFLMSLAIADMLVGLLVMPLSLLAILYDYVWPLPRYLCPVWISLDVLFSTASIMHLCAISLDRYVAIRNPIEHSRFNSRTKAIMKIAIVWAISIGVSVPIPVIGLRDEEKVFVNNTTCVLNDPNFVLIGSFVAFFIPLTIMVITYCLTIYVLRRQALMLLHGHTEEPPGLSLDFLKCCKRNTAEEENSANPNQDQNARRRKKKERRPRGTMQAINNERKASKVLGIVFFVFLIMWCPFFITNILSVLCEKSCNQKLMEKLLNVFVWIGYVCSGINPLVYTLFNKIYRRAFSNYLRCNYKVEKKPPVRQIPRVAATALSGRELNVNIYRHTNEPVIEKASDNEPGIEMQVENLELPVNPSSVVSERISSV

[3] = target: Mitogen-activated protein kinase 14 (Homo sapiens, UniProt Q16539); parameters: species or system Escherichia coli;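 note: inhibition of p38alpha enzyme activity in a biochemical kinase assay, with myelin basic protein serving as substrate; in other assays of this panel Not Active means under 50% inhibition at 10 µM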
[4] = DRUGMATRIX: Glutamate, AMPA radioligand binding (ligand: [3H] AMPA); type: cell membranes, Rattus norvegicus, Wistar, Cerebral cortex, Membrane; details: Not Active = under 50% inhibition at 10 µM
Cytochrome P450 2D6 = Cytochrome P450 2D6 (Homo sapiens, UniProt P10635); details: bti-tn-5b1-4; note: in other assays of this panel Not Active means under 50% inhibition at 10 µM
[5] = target: T2, Cysteinyl leukotriene receptor 1 (Homo sapiens, UniProt Q9Y271); type: cell membranes, Membrane; details: cho-k1; note: in other assays of this panel Not Active means under 50% inhibition at 10 µM
T2 sequence (Q9Y271 whole entry): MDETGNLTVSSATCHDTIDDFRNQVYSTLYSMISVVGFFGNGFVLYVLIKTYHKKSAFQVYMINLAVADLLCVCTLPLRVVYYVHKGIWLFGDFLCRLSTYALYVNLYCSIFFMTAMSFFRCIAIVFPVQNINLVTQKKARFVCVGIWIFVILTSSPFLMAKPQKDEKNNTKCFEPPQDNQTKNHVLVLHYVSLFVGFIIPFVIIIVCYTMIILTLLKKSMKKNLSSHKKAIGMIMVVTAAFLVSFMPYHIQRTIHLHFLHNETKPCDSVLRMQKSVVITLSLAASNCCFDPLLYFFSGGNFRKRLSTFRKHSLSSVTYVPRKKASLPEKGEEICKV

Chain of Mitogen-activated protein kinase 14 (Q16539 whole entry): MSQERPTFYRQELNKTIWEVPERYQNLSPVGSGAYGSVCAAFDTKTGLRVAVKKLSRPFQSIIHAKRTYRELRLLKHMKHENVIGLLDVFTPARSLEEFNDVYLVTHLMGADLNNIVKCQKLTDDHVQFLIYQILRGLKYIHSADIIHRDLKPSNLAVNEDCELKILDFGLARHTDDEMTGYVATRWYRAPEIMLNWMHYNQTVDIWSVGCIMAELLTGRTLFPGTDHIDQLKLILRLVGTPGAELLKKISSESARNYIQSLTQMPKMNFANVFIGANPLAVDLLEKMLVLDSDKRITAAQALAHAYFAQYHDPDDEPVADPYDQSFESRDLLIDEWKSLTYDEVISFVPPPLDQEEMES
Chain of Cytochrome P450 2D6 (P10635 whole entry): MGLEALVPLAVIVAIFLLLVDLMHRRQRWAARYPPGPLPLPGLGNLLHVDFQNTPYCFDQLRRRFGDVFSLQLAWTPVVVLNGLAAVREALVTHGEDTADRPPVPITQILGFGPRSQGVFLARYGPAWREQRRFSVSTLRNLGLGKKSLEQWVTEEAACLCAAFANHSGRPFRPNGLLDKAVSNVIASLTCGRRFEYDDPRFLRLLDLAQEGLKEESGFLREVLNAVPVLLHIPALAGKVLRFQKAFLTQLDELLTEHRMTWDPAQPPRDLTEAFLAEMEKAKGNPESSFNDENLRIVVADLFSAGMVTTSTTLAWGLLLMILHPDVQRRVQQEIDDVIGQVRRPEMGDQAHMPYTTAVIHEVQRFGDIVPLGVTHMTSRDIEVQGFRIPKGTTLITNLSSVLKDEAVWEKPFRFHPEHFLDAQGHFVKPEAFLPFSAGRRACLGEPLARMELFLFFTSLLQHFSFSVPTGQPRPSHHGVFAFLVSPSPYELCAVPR

CC[C@H](C)[C@H]1O[C@]2(C=C[C@@H]1C)C[C@@H]1C[C@@H](C/C=C(\C)[C@@H](O[C@H]3C[C@H](OC)[C@@H](O[C@H]4C[C@H](OC)[C@@H](O)[C@H](C)O4)[C@H](C)O3)[C@@H](C)/C=C/C=C3\CO[C@@H]4[C@H](O)C(C)=C[C@@H](C(=O)O1)[C@]34O)O2.CO[C@H]1C[C@H](O[C@H]2[C@H](C)O[C@@H](O[C@@H]3/C(C)=C/C[C@@H]4C[C@@H](C[C@]5(C=C[C@H](C)[C@@H](C(C)C)O5)O4)OC(=O)[C@@H]4C=C(C)[C@@H](O)[C@H]5OC/C(=C\C=C\[C@@H]3C)[C@]54O)C[C@@H]2OC)O[C@@H](C)[C@@H]1O [ABAMECTIN]
Not Active: IC50 [1] | Ki [1] | IC50 [2] | IC50 [3] | IC50 [4] | Ki [4] | IC50 (Cytochrome P450 2D6) | Ki (Cytochrome P450 2D6) | IC50 [5]

Cc1nnc2n1-c1ccc(Cl)cc1C(c1ccccc1)=NC2 [ALPRAZOLAM]
Not Active: IC50 [1] | Ki [1] | IC50 [2] | IC50 [3] | IC50 [4] | Ki [4] | IC50 (Cytochrome P450 2D6) | Ki (Cytochrome P450 2D6) | IC50 [5]

Cn1c(=O)c2[nH]cnc2n(C)c1=O.Cn1c(=O)c2[nH]cnc2n(C)c1=O.NCCN [AMINOPHYLLINE]
Not Active: IC50 [1] | Ki [1] | IC50 [2] | IC50 [3] | IC50 [4] | Ki [4] | IC50 (Cytochrome P450 2D6) | Ki (Cytochrome P450 2D6) | IC50 [5]

CCC1(CCC(C)C)C(=O)NC(=O)NC1=O [AMOBARBITAL]
Not Active: IC50 [1] | Ki [1] | IC50 [2] | IC50 [3] | IC50 [4] | Ki [4] | IC50 (Cytochrome P450 2D6) | Ki (Cytochrome P450 2D6) | IC50 [5]

CC1(C)S[C@@H]2[C@H](NC(=O)[C@H](N)c3ccccc3)C(=O)N2[C@H]1C(=O)O [AMPICILLIN]
Not Active: IC50 [1] | Ki [1] | IC50 [2] | IC50 [3] | IC50 [4] | Ki [4] | IC50 (Cytochrome P450 2D6) | Ki (Cytochrome P450 2D6) | IC50 [5]

COc1ccc(C2C(=O)c3ccccc3C2=O)cc1 [ANISINDIONE]
Not Active: IC50 [1] | Ki [1] | IC50 [2] | IC50 [3] | IC50 [4] | Ki [4] | IC50 (Cytochrome P450 2D6) | Ki (Cytochrome P450 2D6) | IC50 [5]

O=C1O[C@H]([C@@H](O)CO)C(O)=C1O [ASCORBIC ACID]
Not Active: IC50 [1] | Ki [1] | IC50 [2] | IC50 [3] | IC50 [4] | Ki [4] | IC50 (Cytochrome P450 2D6) | Ki (Cytochrome P450 2D6) | IC50 [5]

CC(C(=O)O)c1ccc2oc(-c3ccc(Cl)cc3)nc2c1 (stereo not drawn) [BENOXAPROFEN]
Not Active: IC50 [1] | Ki [1] | IC50 [2] | IC50 [3] | IC50 [4] | Ki [4] | IC50 (Cytochrome P450 2D6) | Ki (Cytochrome P450 2D6) | IC50 [5]

O=C(O)CCNC(=O)c1ccccc1 [BETAMIPRON]
Not Active: IC50 [1] | Ki [1] | IC50 [2] | IC50 [3] | IC50 [4] | Ki [4] | IC50 (Cytochrome P450 2D6) | Ki (Cytochrome P450 2D6) | IC50 [5]

CC(=O)Oc1ccc(C(c2ccc(OC(C)=O)cc2)c2ccccn2)cc1 [BISACODYL]
Not Active: IC50 [1] | Ki [1] | IC50 [2] | IC50 [3] | IC50 [4] | Ki [4] | IC50 (Cytochrome P450 2D6) | Ki (Cytochrome P450 2D6) | IC50 [5]

Brc1c(NC2=NCCN2)ccc2nccnc12 [BRIMONIDINE]
Not Active: IC50 [1] | Ki [1] | IC50 [2] | IC50 [3] | IC50 [4] | Ki [4] | IC50 (Cytochrome P450 2D6) | Ki (Cytochrome P450 2D6) | IC50 [5]

CN(C)[C@@H]1C(O)=C(C(N)=O)C(=O)[C@@]2(O)C(O)=C3C(=O)c4c(O)ccc(Cl)c4[C@@](C)(O)[C@H]3C[C@@H]12 [CHLORTETRACYCLINE]
Not Active: IC50 [1] | Ki [1] | IC50 [2] | IC50 [3] | IC50 [4] | Ki [4] | IC50 (Cytochrome P450 2D6) | Ki (Cytochrome P450 2D6) | IC50 [5]

CN/C(=N\CCSCc1nc[nH]c1C)NC#N [CIMETIDINE]
Not Active: IC50 [1] | Ki [1] | IC50 [2] | IC50 [3] | IC50 [4] | Ki [4] | IC50 (Cytochrome P450 2D6) | Ki (Cytochrome P450 2D6) | IC50 [5]

CCC(=O)O[C@]1(C(=O)CCl)[C@@H](C)C[C@H]2[C@@H]3CCC4=CC(=O)C=C[C@]4(C)[C@@]3(F)[C@@H](O)C[C@@]21C [CLOBETASOL PROPIONATE]
Not Active: IC50 [1] | Ki [1] | IC50 [2] | IC50 [3] | IC50 [4] | Ki [4] | IC50 (Cytochrome P450 2D6) | Ki (Cytochrome P450 2D6) | IC50 [5]

O=C1CN=C(c2ccccc2Cl)c2cc([N+](=O)[O-])ccc2N1 [CLONAZEPAM]
Not Active: IC50 [1] | Ki [1] | IC50 [2] | IC50 [3] | IC50 [4] | Ki [4] | IC50 (Cytochrome P450 2D6) | Ki (Cytochrome P450 2D6) | IC50 [5]

Nc1ccn([C@@H]2O[C@H](CO)[C@@H](O)[C@@H]2O)c(=O)n1 [CYTARABINE]
Not Active: IC50 [1] | Ki [1] | IC50 [2] | IC50 [3] | IC50 [4] | Ki [4] | IC50 (Cytochrome P450 2D6) | Ki (Cytochrome P450 2D6) | IC50 [5]

C[C@@H]1C[C@H]2[C@@H]3CCC4=CC(=O)C=C[C@]4(C)[C@@]3(F)[C@@H](O)C[C@]2(C)[C@H]1C(=O)CO [DESOXIMETASONE]
Not Active: IC50 [1] | Ki [1] | IC50 [2] | IC50 [3] | IC50 [4] | Ki [4] | IC50 (Cytochrome P450 2D6) | Ki (Cytochrome P450 2D6) | IC50 [5]
